Experimental data published in PMC11792831, “Design and synthesis of doublecortin-like kinase 1 inhibitors and their bioactivity evaluation” (Journal of Enzyme Inhibition and Medicinal Chemistry, 2023).

How the values were obtained:
[1] = target: T1, LRRK2 (Homo sapiens, UniProt Q5S007); test: In vitro LRRK2 kinase activity assay (Eurofins); type: biochemical; settings: for activity at 1 µM: remaining kinase activity at 1 uM compound, 100% = no inhibition, 0% = complete inhibition
T1 construct: purchased Eurofins (Belgium), contract assay service
Method: All compounds were tested for their kinase inhibitory activity at the concentration of 1 μM. […] Compounds with high activity or good selectivity were selected for further IC50 determination (Table 2).
(§1) Eurofins (Belgium) conducted in vitro DCLK1 and LRRK2 kinase activity assays. Compounds were sent as dry powders to Eurofins.

[2] = target: T2, DCLK1 (Homo sapiens, UniProt O15075); test: In vitro DCLK1 kinase activity assay (Eurofins); type: biochemical; settings: for Selectivity (IC50 of DCLK1/IC50 of LRRK2): ratio of IC50 values; for Selectivity (DCLK1 activity/LRRK2 activity): ratio of remaining activities at 1 uM; for IC50: read-out: IC50 of DCLK1; for activity at 1 µM: remaining kinase activity at 1 uM compound, 100% = no inhibition, 0% = complete inhibition, read-out: DCLK1 activity (%)
T2 construct: purchased Eurofins (Belgium), contract assay service
T2 sequence (O15075 1-740): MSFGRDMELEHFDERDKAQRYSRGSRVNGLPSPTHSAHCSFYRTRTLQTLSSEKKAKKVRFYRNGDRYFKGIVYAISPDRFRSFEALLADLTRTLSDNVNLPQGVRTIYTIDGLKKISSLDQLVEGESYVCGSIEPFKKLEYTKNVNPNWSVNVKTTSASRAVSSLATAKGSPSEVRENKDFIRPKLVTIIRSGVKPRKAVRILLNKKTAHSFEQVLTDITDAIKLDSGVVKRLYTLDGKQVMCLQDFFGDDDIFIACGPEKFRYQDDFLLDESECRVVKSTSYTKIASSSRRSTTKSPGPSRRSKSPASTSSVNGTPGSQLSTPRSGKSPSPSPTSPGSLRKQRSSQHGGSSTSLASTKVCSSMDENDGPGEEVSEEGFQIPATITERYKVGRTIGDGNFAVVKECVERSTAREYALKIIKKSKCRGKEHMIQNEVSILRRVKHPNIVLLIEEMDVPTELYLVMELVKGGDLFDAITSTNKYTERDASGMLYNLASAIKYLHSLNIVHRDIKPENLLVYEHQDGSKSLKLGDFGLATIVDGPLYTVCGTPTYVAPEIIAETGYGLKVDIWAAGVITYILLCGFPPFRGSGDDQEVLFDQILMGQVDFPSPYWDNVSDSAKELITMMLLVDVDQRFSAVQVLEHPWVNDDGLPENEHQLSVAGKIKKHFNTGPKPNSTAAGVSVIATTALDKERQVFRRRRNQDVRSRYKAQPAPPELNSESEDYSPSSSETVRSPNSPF
Text: as §1

[3] = test system: HCT116; test: In vitro cytotoxicity / anti-proliferation assay (CCK8); type: cell-based; settings: Homo sapiens, HCT-116, colorectal cancer cell line HCT116, 72 h
Method: To determine whether DCLK1 was required for tumour cell proliferation, the cytotoxicity of compounds was evaluated in colorectal cancer cell line HCT116. HCT116 was treated with compounds for 72 h, and the cell viability was determined using CCK8 assay (Figure 4). The antiproliferative effects of most compounds on HCT116 were correlated with their DCLK1 inhibitory activities, except for compounds D1 and D2. The poor cytotoxicity of compounds D1 and D2 may be attributed to their poor cell membrane permeability due to the negatively charged carboxylates. […] Overall, targeting DCLK1 inhibited the proliferation of HCT116, indicating the importance of DCLK1 in tumour growth.
A 96-well plate (3599, Corning, USA) was inoculated with 100 μL of complete medium containing 10 000 cells, and the experimental, control, and blank groups were established. Three parallel wells were used per concentration. After 10 h, media from the experimental and control groups were replaced with a complete medium containing the indicated concentration of the compound. Cells were incubated for 72 h before 10 μL of CCK8 reagent (CA1210, Solarbio, China) was added to each well and incubated for 1 h. The absorbance at 450 nm was measured with a microplate reader (Tecan, Switzerland). The IC50 was determined using GraphPad Prism 8 and nonlinear regression curve fitting.

T1 sequence (Q5S007 whole entry): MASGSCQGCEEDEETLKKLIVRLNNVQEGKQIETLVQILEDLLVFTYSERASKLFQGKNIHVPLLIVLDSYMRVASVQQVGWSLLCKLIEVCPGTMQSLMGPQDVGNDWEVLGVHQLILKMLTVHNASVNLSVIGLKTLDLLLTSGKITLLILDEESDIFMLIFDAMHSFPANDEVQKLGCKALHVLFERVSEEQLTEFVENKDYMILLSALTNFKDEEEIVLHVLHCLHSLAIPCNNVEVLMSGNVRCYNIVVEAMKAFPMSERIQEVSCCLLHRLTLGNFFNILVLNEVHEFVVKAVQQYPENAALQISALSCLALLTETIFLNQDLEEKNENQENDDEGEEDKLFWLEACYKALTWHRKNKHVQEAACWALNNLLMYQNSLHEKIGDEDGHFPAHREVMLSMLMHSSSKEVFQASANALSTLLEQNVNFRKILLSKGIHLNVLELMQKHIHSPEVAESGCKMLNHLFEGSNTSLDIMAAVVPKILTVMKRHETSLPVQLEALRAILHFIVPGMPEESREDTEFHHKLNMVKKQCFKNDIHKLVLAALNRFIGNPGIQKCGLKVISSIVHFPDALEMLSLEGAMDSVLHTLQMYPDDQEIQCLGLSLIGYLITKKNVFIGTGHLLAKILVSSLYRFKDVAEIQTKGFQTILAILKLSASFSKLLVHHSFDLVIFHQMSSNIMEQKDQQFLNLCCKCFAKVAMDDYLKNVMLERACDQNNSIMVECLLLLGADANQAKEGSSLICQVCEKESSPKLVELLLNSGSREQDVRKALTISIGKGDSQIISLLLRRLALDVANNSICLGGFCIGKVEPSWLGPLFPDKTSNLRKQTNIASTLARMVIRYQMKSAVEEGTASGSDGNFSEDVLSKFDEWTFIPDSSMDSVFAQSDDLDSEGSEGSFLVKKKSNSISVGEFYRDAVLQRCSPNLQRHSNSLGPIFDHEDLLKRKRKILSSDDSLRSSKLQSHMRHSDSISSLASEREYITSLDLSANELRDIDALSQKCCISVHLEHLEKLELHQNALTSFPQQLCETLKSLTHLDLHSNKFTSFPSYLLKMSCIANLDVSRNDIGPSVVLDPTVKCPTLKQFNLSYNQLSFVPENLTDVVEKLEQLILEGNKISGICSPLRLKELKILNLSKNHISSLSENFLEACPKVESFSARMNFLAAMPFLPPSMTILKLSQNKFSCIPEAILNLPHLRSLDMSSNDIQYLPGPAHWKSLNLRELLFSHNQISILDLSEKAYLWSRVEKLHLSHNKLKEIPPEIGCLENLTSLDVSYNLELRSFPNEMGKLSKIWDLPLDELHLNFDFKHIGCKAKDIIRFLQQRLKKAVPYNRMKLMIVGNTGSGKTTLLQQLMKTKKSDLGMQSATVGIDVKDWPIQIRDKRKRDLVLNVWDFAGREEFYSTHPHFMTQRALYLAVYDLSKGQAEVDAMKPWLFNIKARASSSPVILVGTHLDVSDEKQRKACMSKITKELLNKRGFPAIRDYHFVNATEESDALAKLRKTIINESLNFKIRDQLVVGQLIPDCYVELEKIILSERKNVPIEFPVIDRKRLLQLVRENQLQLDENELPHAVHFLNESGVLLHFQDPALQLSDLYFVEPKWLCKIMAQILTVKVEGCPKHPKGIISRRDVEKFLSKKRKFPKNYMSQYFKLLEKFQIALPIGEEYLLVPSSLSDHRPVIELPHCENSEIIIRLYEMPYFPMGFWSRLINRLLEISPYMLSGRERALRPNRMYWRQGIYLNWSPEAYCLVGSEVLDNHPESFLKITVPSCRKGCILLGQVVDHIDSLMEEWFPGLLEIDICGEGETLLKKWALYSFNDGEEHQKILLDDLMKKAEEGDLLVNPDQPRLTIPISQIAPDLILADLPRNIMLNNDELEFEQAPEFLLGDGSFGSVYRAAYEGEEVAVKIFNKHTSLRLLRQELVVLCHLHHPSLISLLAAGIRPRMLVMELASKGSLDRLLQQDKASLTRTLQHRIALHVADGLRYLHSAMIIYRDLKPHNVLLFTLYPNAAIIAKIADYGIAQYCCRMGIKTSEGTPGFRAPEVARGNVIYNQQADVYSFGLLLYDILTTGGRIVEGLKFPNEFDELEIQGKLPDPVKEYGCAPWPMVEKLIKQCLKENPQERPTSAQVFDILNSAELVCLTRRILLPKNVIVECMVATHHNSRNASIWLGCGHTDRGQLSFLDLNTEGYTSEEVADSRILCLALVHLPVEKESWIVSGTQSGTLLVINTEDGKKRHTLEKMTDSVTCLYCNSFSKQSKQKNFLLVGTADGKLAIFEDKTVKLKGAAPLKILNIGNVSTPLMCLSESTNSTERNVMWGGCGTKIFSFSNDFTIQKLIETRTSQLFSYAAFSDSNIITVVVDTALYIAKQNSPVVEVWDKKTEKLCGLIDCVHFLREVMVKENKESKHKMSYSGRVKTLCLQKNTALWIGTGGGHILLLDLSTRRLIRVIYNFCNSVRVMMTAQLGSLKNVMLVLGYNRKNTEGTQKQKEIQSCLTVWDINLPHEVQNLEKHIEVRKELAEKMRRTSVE

| IC50 [1] | activity at 1 µM [1] | Selectivity (IC50 of DCLK1/IC50 of LRRK2) [2] | Selectivity (DCLK1 activity/LRRK2 activity) [2] | IC50 [2] | activity at 1 µM [2] | melting point | Compound | IC50 [3] |
| --- | --- | --- | --- | --- | --- | --- | --- | --- |
| 99 nM | 10% | 0.47 | 0.50 | 47 nM | 5% | 179 to 180 °C | COc1cc(N2CCC(OC)CC2)ccc1Nc1ncc2c(n1)N(C)c1ccccc1C(=O)N2C [Compound D12, 2-((2-Methoxy-4-(4-methoxypiperidin-1-yl)phenyl)amino)-5,11-dimethyl-5,11-dihydro-6H-benzo[e]pyrimido[5,4-b][1,4]diazepin-6-one] | 10100 nM |
| 132 nM | 16% | 0.40 | 0.44 | 53 nM | 7% | 171 to 172 °C | COc1cc(N2CCC(F)(F)CC2)ccc1Nc1ncc2c(n1)N(C)c1ccccc1C(=O)N2C [Compound D14, 2-((4-(4,4-Difluoropiperidin-1-yl)-2-methoxyphenyl)amino)-5,11-dimethyl-5,11-dihydro-6H-benzo[e]pyrimido[5,4-b][1,4]diazepin-6-one] | 15500 nM |
| 89 nM | 9% | 0.58 | 0.44 | 52 nM | 4% | 162 to 163 °C | COc1cc(N2CCC(C)(O)CC2)ccc1Nc1ncc2c(n1)N(C)c1ccccc1C(=O)N2C [Compound D15, 2-((4-(4-Hydroxy-4-methylpiperidin-1-yl)-2-methoxyphenyl)amino)-5,11-dimethyl-5,11-dihydro-6H-benzo[e]pyrimido[5,4-b][1,4]diazepin-6-one] | 9880 nM |
